Reference: PMC6989684 (Scientific Reports, 2020)

Molecular target: T1, M. musculus importin-α (MmImpα), variant α2, truncated 70–529 (Mus musculus, UniProt P52293)
T1 construct: histidine tag; made in house; host or cells: Escherichia coli Rosetta (TM) pLYS
Test: Isothermal titration calorimetry (ITC), NLS peptide titrated into MmImpα
Assay type: binding
Conditions: 20 °C; for interaction with Impα receptor in words: mutated PAC-3 NLS (basic cluster to Ala), pH 8.0, protein/peptide 1:10 and 1:20; for Stoichiometry (binding): mutated PAC-3 NLS, 20 mM Tris-HCl pH 8.0, 100 mM NaCl, protein/peptide 1:10 and 1:20
Excerpt: The gene encoding the protein Impα from M. musculus was cloned into the pET30a expression vector. Recombinant MmImpα was cloned with a histidine tag and as a truncated protein (70–529) to avoid autoinhibition. The clones were provided by Dr. Bostjan Kobe from the University of Queensland (Australia). The plasmid was expressed in Escherichia coli host strain Rosetta (TM) pLYS (Novagen), and the recombinant protein was purified by affinity chromatography according to Barros et al., 2012[59]. The protein was eluted with a 0.0–0.15 M imidazole linear gradient, concentrated using an Amicon dispositive, and the buffer was changed to 20 mM Tris-HCl, pH 8.0 and 100 mM NaCl for storage. The purified protein was stored at cryogenic temperature.
The samples were submitted to ITC experiments, performed with a MicroCal iTC200 microcalorimeter (GE Healthcare), where the peptide sample was titrated into the protein sample. […] Control experiments were performed by titration of the peptide sample into the buffer, and the data obtained were subtracted from the peptide:protein titrations. Data were processed using Origin 7.0 software (Microcal Software, Northampton, MA) to obtain the thermodynamic constants of the interactions.

| Stoichiometry (binding) | Sequence | interaction with Impα receptor in words |
| --- | --- | --- |
| No binding | FDARKRQFDDLNDFFGSVAAAQIN [PAC3Δmajor, mutated PAC-3 NLS peptide, C-terminal basic cluster mutated] | no measured interaction with Impα receptor |
| No binding | FDAAAAQFDDLNDFFGSVKRRQIN [PAC3Δminor, mutated PAC-3 NLS peptide, N-terminal basic cluster mutated] | no measured interaction with Impα receptor |
